Earlier results as cited in patent publication US20220168241A1, “SUSTAINED RELEASE C[…] METHOD OF PREPARATION THEREOF” (PHARMATHEN S.A., priority 2019, published 2022).

Target: recombinant μ-opioid receptor (Homo sapiens, UniProt P35372)
Sequence (P35372 whole entry, species assumed): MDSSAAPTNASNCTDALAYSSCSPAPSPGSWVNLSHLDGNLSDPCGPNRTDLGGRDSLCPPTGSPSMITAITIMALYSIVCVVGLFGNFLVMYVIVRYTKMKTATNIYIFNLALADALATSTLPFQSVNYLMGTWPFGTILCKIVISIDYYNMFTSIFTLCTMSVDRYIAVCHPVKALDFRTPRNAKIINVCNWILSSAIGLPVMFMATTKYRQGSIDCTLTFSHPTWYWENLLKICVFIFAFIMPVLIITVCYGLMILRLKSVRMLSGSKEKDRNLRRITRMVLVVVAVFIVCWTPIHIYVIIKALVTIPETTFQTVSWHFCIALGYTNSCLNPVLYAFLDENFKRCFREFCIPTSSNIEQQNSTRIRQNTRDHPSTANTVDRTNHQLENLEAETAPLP

CC[C@@H](c1cccc(O)c1)[C@@H](C)CN(C)C [Tapentadol]
reduced affinity to recombinant μ-opioid receptor compared to morphine: 18 times
